Assay results: patent US7445897B2, “Sequence variants of multi-drug resistance genes, MDR1 and MRP1, and methods for assessment of drug penetration and disposition” (University of Washington, priority 2004, dated 2008)
Where two headings read alike, the source gives them in different places.

Columns and labels:
[1] = target: MDR1 (wild type) (Homo sapiens, UniProt P08183, G185V/S893A); test: in vitro
[2] = test system: LLC-PK1 control cells
[3] = van Heeswijk et al. 2001; cited from earlier work
[4] = test system: LLC-PK1 control cells; test: Intracellular uptake of HIV protease inhibitors; format: in vitro ADME, porcine
[5] = target: MDR1 (1199A variant) (Homo sapiens, UniProt P08183, G185V/S400N/S893A); test: Intracellular uptake of HIV protease inhibitors; settings: recombinant LLC-PK1 cells expressing MDR1-1199A
[6] = test system: MDR1 (G1199A variant); test: in vitro; settings: human; for EC50 at 72 h: HEK293 cells recombinantly expressing MDR1 G1199A
[7] = test system: HEK negative control cells; test: Cytotoxic drug sensitivity assay (MTS); format: cell-based, human; settings: Homo sapiens, 72 h
[8] = test system: LLC-PK1 control cells; test: Cytotoxic drug sensitivity assay (3H-thymidine); format: cell-based, porcine; settings: Sus scrofa, 72 h, 3 days with drug
Protocol: (§1) On the second day of the incubation, 1 μCi of ^3H-thymidine (specific activity: 81.1 Ci/mmole) was added to each well and incubated overnight. Cells were harvested on day 3 with a cell harvester.
(§2) Dose response analysis was performed for doxorubicin, vincristine and vinblastine. […] TRANSEPITHELIAL TRANSPORT

[9] = test system: recombinant MDR1wt LLC-PK1 cells; test: Cytotoxic drug sensitivity assay (3H-thymidine); format: cell-based, porcine; settings: for EC50 fold-change from control: MDR1wt vs LLC-PK1 control; for EC50: Sus scrofa, 72 h, MDR1wt LLC-PK1 cells, 3 days with drug
Protocol: as §1, §2

[10] = test system: recombinant MDR11199 LLC-PK1 cells; test: Cytotoxic drug sensitivity assay (3H-thymidine); format: cell-based, porcine; settings: for EC50 fold-change from control: MDR11199 vs LLC-PK1 control; for EC50: Sus scrofa, 72 h, MDR11199 LLC-PK1 cells, 3 days with drug; for resistance of MDR11199 cells relative to MDR1wt cells: MDR11199 vs MDR1wt, from EC50; for resistance of MDR11199 cells compared with MDR1wt cells: cytotoxicity studies, LLC-PK1
Protocol: as §1, §2

[11] = test system: MDR1 (G1199T variant); test: Cytotoxic drug sensitivity assay (MTS); format: cell-based, human; settings: human, HEK293 cells recombinantly expressing MDR1 G1199T
[12] = test system: MDR1 (wild type); test: Cytotoxic drug sensitivity assay (MTS); format: cell-based, human; settings: human, HEK293 cells recombinantly expressing MDR1 wild type
[13] = test system: P-gp (MDR11199, G1199A) in recombinant LLC-PK1 cells; settings: human, LLC-PK1
[14] = target: T1, rMRP1 (Rattus norvegicus, UniProt Q8CG09); test: Calcein efflux in rMRP1-expressing MDCK-II cells; format: cell-based; settings: indomethacin 100 μM, MK571 10 μM
T1 construct: expressed in transfected cells
T1 sequence (Q8CG09 whole entry): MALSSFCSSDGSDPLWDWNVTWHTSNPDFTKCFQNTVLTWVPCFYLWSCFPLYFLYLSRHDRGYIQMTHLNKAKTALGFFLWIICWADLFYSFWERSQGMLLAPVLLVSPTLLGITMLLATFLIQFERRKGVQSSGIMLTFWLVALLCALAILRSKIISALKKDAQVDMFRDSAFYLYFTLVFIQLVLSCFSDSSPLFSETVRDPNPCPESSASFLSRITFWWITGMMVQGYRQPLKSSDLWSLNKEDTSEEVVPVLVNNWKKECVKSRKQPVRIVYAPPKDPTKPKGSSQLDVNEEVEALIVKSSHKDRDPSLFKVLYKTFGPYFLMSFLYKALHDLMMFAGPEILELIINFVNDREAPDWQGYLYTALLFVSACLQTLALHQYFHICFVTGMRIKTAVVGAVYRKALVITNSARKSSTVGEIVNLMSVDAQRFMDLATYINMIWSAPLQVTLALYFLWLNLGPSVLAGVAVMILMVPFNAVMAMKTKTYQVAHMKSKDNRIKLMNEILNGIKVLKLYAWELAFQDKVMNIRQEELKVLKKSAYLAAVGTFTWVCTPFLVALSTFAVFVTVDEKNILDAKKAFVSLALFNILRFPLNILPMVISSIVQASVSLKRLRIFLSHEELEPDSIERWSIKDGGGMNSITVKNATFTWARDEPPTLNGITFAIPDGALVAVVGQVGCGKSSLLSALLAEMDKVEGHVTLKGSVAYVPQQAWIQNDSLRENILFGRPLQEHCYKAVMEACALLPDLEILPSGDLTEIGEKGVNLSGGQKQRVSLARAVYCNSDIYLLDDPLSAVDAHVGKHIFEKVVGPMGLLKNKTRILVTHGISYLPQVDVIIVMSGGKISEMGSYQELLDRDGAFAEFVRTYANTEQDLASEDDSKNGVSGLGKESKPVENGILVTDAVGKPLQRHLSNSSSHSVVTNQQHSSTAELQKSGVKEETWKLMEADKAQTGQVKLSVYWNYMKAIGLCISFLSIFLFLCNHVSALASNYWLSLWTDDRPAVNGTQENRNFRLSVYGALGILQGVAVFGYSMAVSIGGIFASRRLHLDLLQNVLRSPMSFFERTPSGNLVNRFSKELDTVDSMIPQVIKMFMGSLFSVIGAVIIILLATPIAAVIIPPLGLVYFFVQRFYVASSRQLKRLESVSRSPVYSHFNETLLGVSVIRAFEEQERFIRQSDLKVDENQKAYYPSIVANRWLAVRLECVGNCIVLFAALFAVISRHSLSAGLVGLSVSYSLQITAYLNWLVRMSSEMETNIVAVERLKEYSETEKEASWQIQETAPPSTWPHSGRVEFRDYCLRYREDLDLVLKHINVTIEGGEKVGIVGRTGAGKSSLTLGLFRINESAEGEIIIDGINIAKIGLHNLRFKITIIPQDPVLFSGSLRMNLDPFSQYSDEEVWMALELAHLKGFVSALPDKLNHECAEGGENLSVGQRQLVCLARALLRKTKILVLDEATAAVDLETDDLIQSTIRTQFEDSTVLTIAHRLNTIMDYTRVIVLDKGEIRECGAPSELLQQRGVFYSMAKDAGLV
Source text: These recombinant cells were derived from MDCK-II epithelial cells that form tight junctions, suitable for transepithelial transport assessment. Several stable clones of epithelial cells that consistently express rMRP1 were constructed, which could be differentiated to form a polarized monolayer for transepithelial flux studies. […] The cells that consistently over-expressed rMRP1 were expanded from a single cell clone and analyzed for MRP1 function.

[15] = target: T1, rMRP1; test: Transepithelial transport in differentiated rMRP1-MDCK cells; format: in vitro ADME
Source text: These stable recombinant cells can be used to evaluate drug candidates that are either MRP1 substrates or inhibitors, as well as further elucidate MRP1 structure and function.

[16] = target: T2, MDR1G1199A in recombinant HEK cells (Homo sapiens, UniProt P08183, G185V/S400N/S893A); test: Intracellular levels of Rhodamine123 in HEK cells; format: cell-based
T2 construct: full-length MDR1 cDNA was generated using the high-fidelity protocol developed previously; expressed in transfected cells
T2 sequence (P08183 whole entry G185V/S400N/S893A): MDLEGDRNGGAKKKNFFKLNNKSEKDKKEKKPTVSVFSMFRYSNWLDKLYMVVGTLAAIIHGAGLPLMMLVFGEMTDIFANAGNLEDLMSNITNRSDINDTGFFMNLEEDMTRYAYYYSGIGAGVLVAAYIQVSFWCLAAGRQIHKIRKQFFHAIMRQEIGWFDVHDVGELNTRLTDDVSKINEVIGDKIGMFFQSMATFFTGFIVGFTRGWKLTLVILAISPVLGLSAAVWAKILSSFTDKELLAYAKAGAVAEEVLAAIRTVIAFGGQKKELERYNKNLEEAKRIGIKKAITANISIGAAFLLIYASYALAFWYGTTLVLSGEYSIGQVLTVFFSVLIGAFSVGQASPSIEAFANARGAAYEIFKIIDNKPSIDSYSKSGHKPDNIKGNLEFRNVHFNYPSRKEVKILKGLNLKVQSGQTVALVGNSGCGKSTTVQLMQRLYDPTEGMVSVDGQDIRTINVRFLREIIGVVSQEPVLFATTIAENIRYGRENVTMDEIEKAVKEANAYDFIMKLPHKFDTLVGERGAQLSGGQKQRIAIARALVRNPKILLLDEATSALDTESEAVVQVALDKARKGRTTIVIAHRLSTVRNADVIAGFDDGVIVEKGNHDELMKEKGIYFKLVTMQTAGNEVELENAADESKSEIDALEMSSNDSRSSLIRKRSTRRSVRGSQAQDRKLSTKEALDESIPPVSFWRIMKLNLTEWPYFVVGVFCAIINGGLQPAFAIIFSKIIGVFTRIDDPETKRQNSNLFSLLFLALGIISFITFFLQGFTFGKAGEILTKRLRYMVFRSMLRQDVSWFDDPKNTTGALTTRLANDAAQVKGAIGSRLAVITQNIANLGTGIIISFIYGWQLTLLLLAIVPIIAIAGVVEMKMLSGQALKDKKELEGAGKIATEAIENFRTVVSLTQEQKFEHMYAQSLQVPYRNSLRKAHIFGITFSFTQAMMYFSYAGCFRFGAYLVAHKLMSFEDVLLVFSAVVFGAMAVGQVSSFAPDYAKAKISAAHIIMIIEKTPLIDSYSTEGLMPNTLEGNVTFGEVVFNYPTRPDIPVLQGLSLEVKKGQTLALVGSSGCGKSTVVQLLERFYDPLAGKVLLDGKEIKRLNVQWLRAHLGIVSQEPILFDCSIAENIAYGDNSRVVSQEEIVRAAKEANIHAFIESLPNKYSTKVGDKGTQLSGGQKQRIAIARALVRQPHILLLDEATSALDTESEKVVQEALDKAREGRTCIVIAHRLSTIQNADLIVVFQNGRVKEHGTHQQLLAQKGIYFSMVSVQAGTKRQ

[17] = test system: HEK293 control cells; test: Intracellular levels of Rhodamine123 in HEK cells; format: cell-based, human
[18] = target: T3, MDR1G1199T in recombinant HEK cells (Homo sapiens, UniProt P08183, G185V/S400I/S893A); test: Intracellular levels of Rhodamine123 in HEK cells; format: cell-based
T3 construct: full-length MDR1 cDNA was generated using the high-fidelity protocol developed previously; expressed in transfected cells

[19] = target: T4, MDR1wt in recombinant HEK cells (Homo sapiens, UniProt P08183, G185V/S893A); test: Intracellular levels of Rhodamine123 in HEK cells; format: cell-based
T4 construct: full-length MDR1 cDNA was generated using the high-fidelity protocol developed previously; expressed in transfected cells
T4 sequence (P08183 whole entry G185V/S893A): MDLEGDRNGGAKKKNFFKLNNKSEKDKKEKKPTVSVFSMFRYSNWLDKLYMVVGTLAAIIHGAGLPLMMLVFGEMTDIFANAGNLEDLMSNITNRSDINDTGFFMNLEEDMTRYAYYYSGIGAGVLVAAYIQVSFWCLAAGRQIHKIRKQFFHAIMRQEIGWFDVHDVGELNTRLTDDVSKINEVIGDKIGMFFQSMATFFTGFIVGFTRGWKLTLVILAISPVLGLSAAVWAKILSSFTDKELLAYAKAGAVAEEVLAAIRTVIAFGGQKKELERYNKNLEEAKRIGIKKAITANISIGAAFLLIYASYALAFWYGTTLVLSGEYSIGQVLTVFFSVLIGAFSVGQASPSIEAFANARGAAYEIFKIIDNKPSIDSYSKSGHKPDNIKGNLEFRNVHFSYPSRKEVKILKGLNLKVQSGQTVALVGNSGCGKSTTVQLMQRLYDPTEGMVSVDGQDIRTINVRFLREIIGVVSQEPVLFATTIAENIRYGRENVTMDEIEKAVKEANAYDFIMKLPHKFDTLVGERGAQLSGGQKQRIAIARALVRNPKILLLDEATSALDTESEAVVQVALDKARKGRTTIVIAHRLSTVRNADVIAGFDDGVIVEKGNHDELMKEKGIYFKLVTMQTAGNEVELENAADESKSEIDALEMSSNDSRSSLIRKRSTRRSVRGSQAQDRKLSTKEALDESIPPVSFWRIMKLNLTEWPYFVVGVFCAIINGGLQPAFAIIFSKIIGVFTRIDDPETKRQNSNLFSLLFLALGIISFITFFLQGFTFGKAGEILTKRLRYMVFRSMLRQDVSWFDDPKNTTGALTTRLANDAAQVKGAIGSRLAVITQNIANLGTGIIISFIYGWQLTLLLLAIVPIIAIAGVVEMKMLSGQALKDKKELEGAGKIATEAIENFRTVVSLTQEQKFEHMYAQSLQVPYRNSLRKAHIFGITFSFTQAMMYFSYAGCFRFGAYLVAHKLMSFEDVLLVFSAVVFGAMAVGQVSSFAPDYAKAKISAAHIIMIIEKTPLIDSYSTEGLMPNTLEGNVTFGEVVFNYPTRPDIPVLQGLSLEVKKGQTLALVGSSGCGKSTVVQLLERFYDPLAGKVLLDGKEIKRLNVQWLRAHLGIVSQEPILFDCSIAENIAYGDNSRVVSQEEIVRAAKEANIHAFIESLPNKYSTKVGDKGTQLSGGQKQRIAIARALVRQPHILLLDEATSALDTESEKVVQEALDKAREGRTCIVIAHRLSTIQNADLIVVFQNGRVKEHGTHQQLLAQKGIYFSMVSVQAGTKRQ

[20] = protease inhibitor + GF120918 (1 μM)
[21] = HEK Control, 72hours, MTS, read-out: EC50 (Mean ± S.D.)
[22] = HEK MDR1 G1199T, 72hours, MTS, read-out: EC50 (Mean ± S.D.)
[23] = HEK MDR1 WT, 72hours, MTS, read-out: EC50 (Mean ± S.D.)
[24] = 0.5 uM, 30 min load, 30 min efflux

CC(C)CN(C[C@@H](O)[C@H](Cc1ccccc1)NC(=O)O[C@H]1CCOC1)S(=O)(=O)c1ccc(N)cc1 [amprenavir]
Km [1]: 10.2 µM | Rate of transfer dQ/dt ± s.d., A → B [2, 20]: 10.8 ± 0.9 | Rate of transfer dQ/dt ± s.d., B → A [2, 20]: 10.2 ± 0.4 | Rate of transfer dQ/dt ± s.d., A → B ([2]; protease inhibitor alone, 5 μM): 9.33 ± 0.46 | Rate of transfer dQ/dt ± s.d., B → A ([2]; protease inhibitor alone, 5 μM): 11.6 ± 0.8 | oral bioavailability in systemic circulation [3]: 35-90% | Km [4]: 250 nM | Vmax [4]: 0.048 pmole/min*10^6 cells | Km [5]: 1000 nM

COc1cccc2c1C(=O)c1c(O)c3c(c(O)c1C2=O)C[C@@](O)(C(=O)CO)C[C@@H]3O[C@H]1C[C@H](N)[C@H](O)[C@H](C)O1 [doxorubicin]
EC50 [6]: 2180 ± 361 nM | EC50 [7, 21]: 45.5 ± 25.1 nM | EC50 [8]: 34.2 ± 3.1 nM | EC50 fold-change from control [9]: 4.53 fold | EC50 [9]: 155 ± 68 nM | EC50 fold-change from control [10]: 3.51 fold | EC50 [10]: 120 ± 32 nM | EC50 at 72 h [11, 22]: 383 ± 39 nM | EC50 at 72 h [12, 23]: 1110 ± 112 nM

CC(C)(C)NC(=O)[C@@H]1CN(Cc2cccnc2)CCN1C[C@@H](O)C[C@@H](Cc1ccccc1)C(=O)N[C@H]1c2ccccc2C[C@H]1O [indinavir]
Rate of transfer dQ/dt ± s.d., A → B [2, 20]: 4.26 ± 0.25 | Rate of transfer dQ/dt ± s.d., B → A [2, 20]: 5.99 ± 0.11 | Rate of transfer dQ/dt ± s.d., A → B ([2]; protease inhibitor alone, 5 μM): 7.17 ± 0.03 | Rate of transfer dQ/dt ± s.d., B → A ([2]; protease inhibitor alone, 5 μM): 6.69 ± 0.21 | oral bioavailability in systemic circulation [3]: 70% | decrease in apical-to-basolateral flux in MDR11199 cells compared to MDR1wt cells [13]: 1.9 fold

COc1ccc2c(c1)c(CC(=O)O)c(C)n2C(=O)c1ccc(Cl)cc1 [indomethacin]
effect of MRP1 inhibitor on calcein efflux [14]: suppressed efflux transport of calcein back to the control level

Cc1cccc(C)c1OCC(=O)N[C@@H](Cc1ccccc1)[C@@H](O)C[C@H](Cc1ccccc1)NC(=O)[C@H](C(C)C)N1CCCNC1=O [lopinavir]
Rate of transfer dQ/dt ± s.d., A → B [2, 20]: 8.48 ± 0.16 | Rate of transfer dQ/dt ± s.d., A → B ([2]; protease inhibitor alone, 5 μM): 9.21 ± 0.24 | decrease in apical-to-basolateral flux in MDR11199 cells compared to MDR1wt cells [13]: 1.6 fold

Cc1c(O)cccc1C(=O)N[C@@H](CSc1ccccc1)[C@H](O)CN1C[C@H]2CCCC[C@H]2C[C@H]1C(=O)NC(C)(C)C [nelfinavir]
oral bioavailability in systemic circulation [3]: 70-80%

CC(=O)O[C@H]1C(=O)[C@@]2(C)[C@H]([C@H](OC(=O)c3ccccc3)[C@]3(O)C[C@H](OC(=O)[C@H](O)[C@@H](NC(=O)c4ccccc4)c4ccccc4)C(C)=C1C3(C)C)[C@]1(OC(C)=O)CO[C@@H]1C[C@@H]2O [paclitaxel]
EC50 [7, 21]: 2.67 ± 0.13 nM | EC50 at 72 h [11, 22]: 42.7 ± 12.7 nM | EC50 at 72 h [12, 23]: 128 ± 50 nM

CC(C)c1nc(CN(C)C(=O)N[C@H](C(=O)N[C@@H](Cc2ccccc2)C[C@H](O)[C@H](Cc2ccccc2)NC(=O)OCc2cncs2)C(C)C)cs1 [ritonavir]
Rate of transfer dQ/dt ± s.d., A → B [2, 20]: 6.46 ± 0.69 | Rate of transfer dQ/dt ± s.d., B → A [2, 20]: 9.60 ± 0.75 | Rate of transfer dQ/dt ± s.d., A → B ([2]; protease inhibitor alone, 5 μM): 6.46 ± 0.94 | Rate of transfer dQ/dt ± s.d., B → A ([2]; protease inhibitor alone, 5 μM): 11.0 ± 0.5 | oral bioavailability in systemic circulation [3]: 60-80% | decrease in apical-to-basolateral flux in MDR11199 cells compared to MDR1wt cells [13]: 2.3 fold | increase in basolateral-to-apical efflux in MDR11199 cells compared to MDR1wt [13]: 1.2 fold | Km [4]: 250 nM

CC[C@]1(O)C[C@@H]2CN(CCc3c([nH]c4ccccc34)[C@@](C(=O)OC)(c3cc4c(cc3OC)N(C)[C@H]3[C@@](O)(C(=O)OC)[C@H](OC(C)=O)[C@]5(CC)C=CCN6CC[C@]43[C@@H]65)C2)C1 [vinblastine]
EC50 [6]: 243 ± 15.1 nM | EC50 [7, 21]: 1.45 ± 0.23 nM | EC50 [8]: 0.66 ± 0.22 nM | EC50 fold-change from control [9]: 2.14 fold | EC50 [9]: 1.41 ± 0.51 nM | EC50 fold-change from control [10]: 23.8 fold | resistance of MDR11199 cells relative to MDR1wt cells [10]: about 11 fold | EC50 [10]: 15.7 nM | resistance of MDR11199 cells compared with MDR1wt cells [10]: more resistant | EC50 at 72 h [11, 22]: 54.7 ± 7.99 nM | EC50 at 72 h [12, 23]: 127 ± 13 nM | directional transepithelial transport [15]: exhibit directional transepithelial transport

CC[C@]1(O)C[C@H]2CN(CCc3c([nH]c4ccccc34)[C@@](C(=O)OC)(c3cc4c(cc3OC)N(C=O)[C@H]3[C@@](O)(C(=O)OC)[C@H](OC(C)=O)[C@]5(CC)C=CCN6CC[C@]43[C@@H]65)C2)C1 [vincristine]
EC50 at 72 h [6]: 860 ± 51.8 nM | EC50 at 72 h ([6]; EC50 for cell growth inhibition, HEK - MDR1 G1199A, 0 month, 72 hours): 683 ± 276 nM | EC50 at 72 h ([6]; EC50 for cell growth inhibition, HEK - MDR1 G1199A, 1 months, 72 hours): 667 ± 87.5 nM | EC50 at 72 h ([6]; EC50 for cell growth inhibition, HEK - MDR1 G1199A, 2 months, 72 hours): 860 ± 51.8 nM | EC50 [7, 21]: 10.2 ± 1.04 nM | EC50 ([7]; HEK negative control, 0 month, 72 hours, read-out: EC50 for cell growth inhibition): 4.01 ± 1.29 nM | EC50 ([7]; HEK negative control, 1 months, 72 hours, read-out: EC50 for cell growth inhibition): 6.68 ± 0.448 nM | EC50 ([7]; HEK negative control, 2 months, 72 hours, read-out: EC50 for cell growth inhibition): 10.2 ± 1.04 nM | EC50 [8]: 0.37 ± 0.12 nM | EC50 fold-change from control [9]: 3.19 fold | EC50 [9]: 1.18 ± 0.56 nM | EC50 fold-change from control [10]: 9.23 fold | resistance of MDR11199 cells relative to MDR1wt cells [10]: ~2.9 fold | EC50 [10]: 3.41 ± 1.47 nM | resistance of MDR11199 cells compared with MDR1wt cells [10]: more resistant | EC50 at 72 h ([11]; HEK - MDR1 G1199T, 0 month, 72 hours, read-out: EC50 for cell growth inhibition): 246 ± 84 nM | EC50 at 72 h ([12]; HEK - MDR1 WT, 0 month, 72 hours, read-out: EC50 for cell growth inhibition): 494 ± 115 nM | EC50 at 72 h ([12]; HEK - MDR1 WT, 1 months, 72 hours, read-out: EC50 for cell growth inhibition): 512 ± 85.1 nM | EC50 at 72 h ([12]; HEK - MDR1 WT, 2 months, 72 hours, read-out: EC50 for cell growth inhibition): 710 ± 33.3 nM | EC50 at 72 h [12, 23]: 710 ± 33.3 nM

Rhodamine-123 [R123]
Intracellular Rhodamine [16, 24]: 1.44 ± 0.12 Unit/mg protein | % of control ([16]; converted to HEK293): 340% | % of control [17]: 100% | Intracellular Rhodamine [17, 24]: 4.66 ± 0.14 Unit/mg protein | Intracellular Rhodamine [18, 24]: 1.82 ± 0.17 Unit/mg protein | % of control ([18]; converted to HEK293): 260% | Intracellular Rhodamine [19, 24]: 2.26 ± 0.06 Unit/mg protein | % of control ([19]; converted to HEK293): 220%
